Assay results: US20260078130A1, “NAMPT MODULATORS, PREPARATIONS, AND USES THEREOF” (SIRONAX LTD., priority 2022, published 2026)

Tests used:
[1] = target: T1, human enzyme NAMPT (full length) (Homo sapiens, UniProt P43490); test: NMN fluorescence biochemical assay (stimulation of NMN synthesis by NAMPT); conditions: for EC50: NMN fluorescence assay, purified human NAMPT 100 nM, concentration giving half-maximal activation, read-out: Enzymatic EC50; for Enzymatic Emax: fold change of maximal activation compared to DMSO
T1 construct: human enzyme NAMPT (full length)
T1 sequence (P43490 whole entry): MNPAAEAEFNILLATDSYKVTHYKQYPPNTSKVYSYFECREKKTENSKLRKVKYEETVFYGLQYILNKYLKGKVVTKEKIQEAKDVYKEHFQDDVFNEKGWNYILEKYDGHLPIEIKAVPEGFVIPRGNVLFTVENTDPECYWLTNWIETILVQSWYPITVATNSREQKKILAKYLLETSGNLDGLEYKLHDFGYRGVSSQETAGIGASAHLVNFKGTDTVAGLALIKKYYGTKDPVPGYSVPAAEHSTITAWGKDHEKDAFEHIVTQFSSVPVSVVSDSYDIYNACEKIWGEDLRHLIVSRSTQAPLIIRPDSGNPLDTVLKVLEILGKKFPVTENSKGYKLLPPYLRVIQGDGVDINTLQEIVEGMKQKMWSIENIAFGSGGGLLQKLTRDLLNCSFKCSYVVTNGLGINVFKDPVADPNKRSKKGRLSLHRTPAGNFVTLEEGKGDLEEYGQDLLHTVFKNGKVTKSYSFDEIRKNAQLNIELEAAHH
Summary of the method: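 Full-length human NAMPT (100 nM) was preincubated 15 min at 37 °C with compound in 50 mM Tris-HCl pH 7.5, 10 mM MgCl2, 2 mM DTT, then reacted 1 h at 37 °C with 50 μM NAM, 100 μM PRPP, 4 mM ATP (stated solution concentrations). NMN was derivatised with acetophenone/KOH then formic acid and read at Ex/Em 382/445 nm; EC50 and Emax (fold over DMSO) reported.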

[2] = system: endogenous NAMPT in U2OS cells; test: Cellular NAD+ modulation assay (NAD/NADH-Glo, U2OS cells); type: cell-based; conditions: Homo sapiens, 24 hours incubation, cellular NAD+; for maximal fold induction: read-out: Cellular Emax
Summary of the method: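 Endogenous NAMPT stimulation in U2OS cells treated with compound dilution series for 24 h at 37 °C. Cells lysed with DTAB base, acid-treated 15 min at 60 °C, neutralized, NAD+ read by NAD/NADH-Glo luminescence after 40 min at room temperature. EC50 and Emax (fold over DMSO) derived.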

Row | Structure (SMILES) | EC50 [1] [nM] | Enzymatic Emax [1] | EC50 [2] [nM] | maximal fold induction [2]
1 | Cn1ncc(Cl)c1CC1c2cc(OC(F)F)ccc2C(=O)N1CC1CC2(CNC(=O)O2)C1 (stereo not shown) [Compound 541, 2-((3-((4-chloro-1-methyl-1H-pyrazol-5-yl)methyl)-5-(difluoromethoxy)-1-oxoisoindolin-2-yl)methyl)-5-oxa-7-azaspiro[3.4]octan-6-one] | 500 to 5000 | B (3≥B>2) | < 500 | > 1.5
2 | CSc1ccc(CN2C(=O)c3ccccc3C2Cc2c(Cl)cnn2C)cc1 (stereo not shown) [Compound 542, 3-((4-chloro-1-methyl-1H-pyrazol-5-yl)methyl)-2-(4-(methylthio)benzyl)isoindolin-1-one] | ≥ 5000 | B (3≥B>2) | 500 to 5000 | 1.2 to 1.5
3 | COc1ccc(CN2C(=O)c3ccccc3C2Cc2c(Cl)cnn2C)nc1F (stereo not shown) [Compound 543, 3-((4-chloro-1-methyl-1H-pyrazol-5-yl)methyl)-2-((6-fluoro-5-methoxypyridin-2-yl)methyl)isoindolin-1-one] | 500 to 5000 | B (3≥B>2) | 500 to 5000 | > 1.5
4 | COc1ccc(CN2C(=O)c3ccccc3C2Cc2c(Cl)cnn2C)cc1Cl (stereo not shown) [Compound 544, 3-((4-chloro-1-methyl-1H-pyrazol-5-yl)methyl)-2-(3-chloro-4-methoxybenzyl)isoindolin-1-one] | 500 to 5000 | C (2≥C) | 500 to 5000 | 1.2 to 1.5
5 | Cn1nc(F)c(Cl)c1CC1c2ccccc2C(=O)N1CC1CC2(CNC(=O)O2)C1 (stereo not shown) [Compound 547, 2-((1-((4-chloro-3-fluoro-1-methyl-1H-pyrazol-5-yl)methyl)-3-oxoisoindolin-2-yl)methyl)-5-oxa-7-azaspiro[3.4]octan-6-one] | 500 to 5000 | A (A>3) | < 500 | > 1.5
6 | CN1C[C@]2(C[C@H](CN3C(=O)c4ccccc4[C@@H]3Cc3c(Cl)cnn3C)C2)OC1=O [Compound 551, (2s,4R)-2-(((S)-1-((4-chloro-1-methyl-1H-pyrazol-5-yl)methyl)-3-oxoisoindolin-2-yl)methyl)-7-methyl-5-oxa-7-azaspiro[3.4]octan-6-one] | 500 to 5000 | B (3≥B>2) | < 500 | > 1.5
7 | Cn1c(=O)oc2cc(CN3C(=O)c4ccccc4C3Cc3c(Br)cccc3C#N)ccc21 (stereo not shown) [Compound 552, 3-bromo-2-((2-((3-methyl-2-oxo-2,3-dihydrobenzo[d]oxazol-6-yl)methyl)-3-oxoisoindolin-1-yl)methyl)benzonitrile] | < 500 | A (A>3) | < 500 | > 1.5
8 | COc1cnc(CN2C(=O)c3ccccc3C2Cc2c(Cl)cnn2C)cc1F (stereo not shown) [Compound 555, 3-((4-chloro-1-methyl-1H-pyrazol-5-yl)methyl)-2-((4-fluoro-5-methoxypyridin-2-yl)methyl)isoindolin-1-one] | ≥ 5000 | B (3≥B>2) | < 500 | > 1.5
9 | Cn1ncc(Cl)c1CC1c2ccccc2C(=O)N1Cc1ccc2c(c1)nnn2C (stereo not shown) [Compound 557, 3-((4-chloro-1-methyl-1H-pyrazol-5-yl)methyl)-2-((1-methyl-1H-benzo[d][1,2,3]triazol-5-yl)methyl)isoindolin-1-one] | 500 to 5000 | A (A>3) | < 500 | > 1.5
10 | Cn1ncc(Cl)c1CC1c2ccccc2C(=O)N1CC1CC(C(N)=O)C1 (stereo not shown) [Compound 562, 3-((1-((4-chloro-1-methyl-1H-pyrazol-5-yl)methyl)-3-oxoisoindolin-2-yl)methyl)cyclobutane-1-carboxamide] | 500 to 5000 | B (3≥B>2) | < 500 | 1.2 to 1.5
11 | Cn1ncc(Cl)c1CC1c2cc(F)ccc2S(=O)(=O)N1CC1CC2(CNC(=O)O2)C1 (stereo not shown) [Compound 563, 2-((3-((4-chloro-1-methyl-1H-pyrazol-5-yl)methyl)-5-fluoro-1,1-dioxidobenzo[d]isothiazol-2(3H)-yl)methyl)-5-oxa-7-azaspiro[3.4]octan-6-one] | 500 to 5000 | A (A>3) | < 500 | > 1.5
12 | Cn1ncc(Cl)c1CC1c2ccccc2C(C)(C)N1CC1CC2(CNC(=O)O2)C1 (stereo not shown) [Compound 565, 2-((3-((4-chloro-1-methyl-1H-pyrazol-5-yl)methyl)-1,1-dimethylisoindolin-2-yl)methyl)-5-oxa-7-azaspiro[3.4]octan-6-one] | < 500 | A (A>3) | < 500 | > 1.5
13 | COc1ccc(CN2C(=O)c3ccccc3C2Cc2c(Cl)c(Cl)nn2C)cc1 (stereo not shown) [Compound 566, 3-((3,4-dichloro-1-methyl-1H-pyrazol-5-yl)methyl)-2-(4-methoxybenzyl)isoindolin-1-one] | 500 to 5000 | A (A>3) | < 500 | > 1.5
14 | COc1ccc(CN2C(=O)c3ccccc3C2Cc2c(C)ccnc2C#N)cc1 (stereo not shown) [Compound 567, 3-((2-(4-methoxybenzyl)-3-oxoisoindolin-1-yl)methyl)-4-methylpicolinonitrile] | < 500 | B (3≥B>2) | < 500 | > 1.5
15 | Cn1ncc(Cl)c1CC1c2ccccc2C(=O)N1CC1CC2(CNC(=O)S2)C1 (stereo not shown) [Compound 568, 2-((1-((4-chloro-1-methyl-1H-pyrazol-5-yl)methyl)-3-oxoisoindolin-2-yl)methyl)-5-thia-7-azaspiro[3.4]octan-6-one] | < 500 | B (3≥B>2) | < 500 | 1.2 to 1.5
16 | Cn1ncc(Cl)c1CC1c2ccccc2C(=O)N1Cc1ccc(Cl)cc1 (stereo not shown) [Compound 573, 3-((4-chloro-1-methyl-1H-pyrazol-5-yl)methyl)-2-(4-chlorobenzyl)isoindolin-1-one] | ≥ 5000 | C (2≥C) | 5000 to 50000 | ≤ 1.2
17 | COc1ccc(CN2C(=O)c3ccccc3C2Cc2c(Cl)cnn2C)cn1 (stereo not shown) [Compound 574, 3-((4-chloro-1-methyl-1H-pyrazol-5-yl)methyl)-2-((6-methoxypyridin-3-yl)methyl)isoindolin-1-one] | 500 to 5000 | B (3≥B>2) | 500 to 5000 | > 1.5
18 | Cn1ncc(Cl)c1CC1c2ccccc2C(=O)N1Cc1ccc(O)nc1 (stereo not shown) [Compound 578, 3-[(4-chloro-2-methyl-pyrazol-3-yl)methyl]-2-[(6-hydroxy-3-pyridyl)methyl]isoindolin-1-one] | ≥ 5000 | B (3≥B>2) | 500 to 5000 | 1.2 to 1.5
19 | Cn1ncc(Cl)c1CC1c2cc(Cl)cc(F)c2C2(CC2)N1CC1CC2(CNC(=O)O2)C1 (stereo not shown) [Compound 580, 2-((5′-chloro-3′-((4-chloro-1-methyl-1H-pyrazol-5-yl)methyl)-7′-fluorospiro[cyclopropane-1,1′-isoindolin]-2′-yl)methyl)-5-oxa-7-azaspiro[3.4]octan-6-one] | 500 to 5000 | A (A>3) | 500 to 5000 | 1.2 to 1.5
